Measured values published in US20170112896A1, “SMALL MOLECULE RAC OR RHO INHIBITORS” (Ohio State Innovation Foundation, priority 2014, published 2017).
“Also recorded” adds a separate entry of the source. Read-outs that look alike come from different tables or passages of the source. Square brackets hold non-standard residues; d marks the D form. Peptide text beside a SMILES is read from it. Phe(4-F) = N[C@@H](Cc1ccc(F)cc1)C(=O)O; d2Nal = N[C@H](Cc1ccc2ccccc2c1)C(=O)O; dNle = CCCC[C@@H](N)C(=O)O

Assays:
[1] = tested on: Akt, Mek and Erk phosphorylation in H1299 cells; assay: Western blot of Ras signaling (Akt, Mek, Erk phosphorylation) in H1299 cells; assay type: cell-based; conditions: for IC50: 10 min treatment
From the text: (§1) Two well characterized Ras effector pathways are the Raf-Mek-Erk and PI3K-Akt signaling pathways (Karnoub, A. E. et al. (2008) Nat Rev. Mol. Cell Biol. 9:517). To determine whether the cyclic peptides inhibited the intracellular Ras activity, Applicant monitored the phosphorylation levels of Mek, Erk, and Akt in cells before and after treatment with the Ras inhibitors. […] In order to rule out that the observed downregulation of P-Mek, P-Erk and P-Akt is caused by inhibition of EGFR signaling, the effect of Cyclosrasin 9A5 on the phosphorylation of the EGFR was tested by performing an IP/Western Blot experiment (FIG. 3E). Active, signaling EGFR is highly autohophosphorylated.

[2] = tested on: Rac and Rho signaling (cofilin, Paxilin, FAK, Mek Ser298, c-Raf Ser338) in H1299 cells; assay: Western blot of effector proteins of Rac and Rho signaling in H1299 cells; assay type: cell-based; conditions: 13 μM
[3] = biological target: T1, Ras(G12V)-Raf RBD interaction (Homo sapiens, UniProt P01116, G12V); assay: HTRF assay, inhibition of Ras-Raf RBD interaction; assay type: binding; conditions: relative to 9A1
T1 construct: The G12V mutant K-Ras (amino acids 1-185) was recombinantly fused to glutathione 5-transferase (GST) at its N-terminus; GST (N, cleaved yes); made in house; host or cells: Escherichia coli BL21
T1 sequence (P01116 1-185 isoform P01116-2 G12V): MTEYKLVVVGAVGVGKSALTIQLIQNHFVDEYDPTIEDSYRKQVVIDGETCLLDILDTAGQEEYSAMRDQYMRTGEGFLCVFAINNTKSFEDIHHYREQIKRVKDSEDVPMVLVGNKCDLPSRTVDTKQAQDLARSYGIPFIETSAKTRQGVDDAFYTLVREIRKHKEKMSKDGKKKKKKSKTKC
Method: Recombinant HA-tagged K-Ras (no GST, 50 nM), GST-Raf RBD (50 nM each), a monoclonal anti-HA antibody labeled with acceptor d2 (2 μg/mL), a monoclonal anti-GST antibody labeled with donor Tb (0.25 μg/mL) (Cisbio), and increasing concentrations of cyclic peptide (0-20 μM) were mixed in PBS (total volume of 20 μL) in a 384-well plate. The plate was incubated overnight at 4° C. and the HTRF signal was measured on a Molecular Devices Spectramax M5 or a Tecan infinite M1000 Pro plate reader. The data were analyzed by Prism 6.0 from Graphpad Software, Inc. (La Jolla, Calif.) and IC50 values were obtained by fitting the data to dose-response-inhibition curve.

[4] = tested on: EGF receptor phosphorylation; assay: IP/Western blot of EGFR phosphorylation; assay type: cell-based; conditions: 13 μM
From the text: as §1

[5] = tested on: actin filaments in A549 cells; assay: Actin filament staining (phalloidin-FITC) and cell morphology; assay type: cell-based; conditions: cells exposed to peptide
[6] = tested on: Akt, Mek and Erk phosphorylation in A549 cells; assay: Western blot of Akt, Mek, Erk phosphorylation in A549 cells; assay type: cell-based; conditions: 10 μM, 10 min
[7] = tested on: Akt, Mek and Erk phosphorylation in H1975 cells; assay: Western blot of Akt, Mek, Erk phosphorylation in H1975 cells; assay type: cell-based; conditions: 10 μM, 10 min
[8] = tested on: Akt, Mek and Erk phosphorylation in H1650 cells; assay: Western blot of Akt, Mek, Erk phosphorylation in H1650 cells; assay type: cell-based; conditions: 10 μM, 10 min

What does the source list for `CCCC[C@H]1NC(=O)[C@H](Cc2ccc(F)cc2)NC(=O)[C@H](CCCNC(=N)N)NC(=O)[C@@H](Cc2ccc3ccccc3c2)NC(=O)[C@H](CCCNC(=N)N)NC(=O)[C@H](CCCNC(=N)N)NC(=O)[C@H](CCCNC(=N)N)NC(=O)[C@@H](C)NC(=O)[C@H]([C@@H](C)O)NC(=O)[C@H](Cc2c[nH]c3ccccc23)NC(=O)[C@H](CCC(N)=O)NC1=O` [Cyclorasin 9A5, (Trp-Thr-ala-Arg-Arg-Arg-nal-Arg-Fpa-nle-Gln)] (cyclo(WT[dA]RRR[d2Nal]R[Phe(4-F)][dNle]Q))?
basal phosphorylation of Mek and Akt ([1]; H1299 cells unstimulated with EGF, 10 μM for 10 min): inhibited; Mek, Erk and Akt phosphorylation ([1]; H1299 cells, 10 μM, 10 min): almost completely abolished; EGF-induced phosphorylation of Akt and Mek ([1]; H1299 cells, 13 μM, 5 min): significant reduction; phosphorylation level of Erk ([1]; H1299 cells, 13 μM, time course): decreased, but to a lesser extent and at a later time point; EGF-induced phosphorylation of Akt and Mek ([1]; H1299 cells, 13 μM, ≧10 min): completely abolished; IC50 ([1]; H1299 cells, read-out: IC50, inhibition of Akt phosphorylation): ~5 µM; IC50 ([1]; H1299 cells, read-out: IC50, inhibition of Mek phosphorylation): ~5 µM; phosphorylation of Paxilin (Tyr118), FAK (Tyr397), Mek (Ser298) and c-Raf (Ser338) [2]: dephosphorylated; phosphorylation of cofilin [2]: decreased; higher potency than 9A1 against K-Ras [3]: 3 fold; EGFR phosphorylation level [4]: does no affect; also recorded: no effect; cell permeability / intracellular fluorescence (A549 lung cancer cells): improved cell permeability; cell morphology [5]: rapid morphological changes; Mek, Erk and Akt phosphorylation [6]: significant Mek and Erk phosphorylation remained; Mek, Erk and Akt phosphorylation [7]: almost completely abolished; also recorded: can be inhibited; Mek, Erk and Akt phosphorylation [8]: almost completely abolished; also recorded: can be inhibited
